{"source": "patent US20190210973A1", "about": "“COMPOUNDS AND METHODS FOR TREATMENT OF CYSTIC FIBROSIS” (The Curators of the University of Missouri, priority 2018, published 2019)", "target": "T1, G551D-CFTR (Homo sapiens, UniProt P13569, G551D)", "T1 construct": "The cDNA constructs of CFTR (G551D and delF508) were co-transfected with peGFP-C3; expressed in transfected cells; host or cells: CHO cells (ATCC), transient co-transfection with pEGFP-C3 (GFP as a separate marker, not fused)", "T1 sequence (P13569 whole entry G551D, the tested form may be a part)": "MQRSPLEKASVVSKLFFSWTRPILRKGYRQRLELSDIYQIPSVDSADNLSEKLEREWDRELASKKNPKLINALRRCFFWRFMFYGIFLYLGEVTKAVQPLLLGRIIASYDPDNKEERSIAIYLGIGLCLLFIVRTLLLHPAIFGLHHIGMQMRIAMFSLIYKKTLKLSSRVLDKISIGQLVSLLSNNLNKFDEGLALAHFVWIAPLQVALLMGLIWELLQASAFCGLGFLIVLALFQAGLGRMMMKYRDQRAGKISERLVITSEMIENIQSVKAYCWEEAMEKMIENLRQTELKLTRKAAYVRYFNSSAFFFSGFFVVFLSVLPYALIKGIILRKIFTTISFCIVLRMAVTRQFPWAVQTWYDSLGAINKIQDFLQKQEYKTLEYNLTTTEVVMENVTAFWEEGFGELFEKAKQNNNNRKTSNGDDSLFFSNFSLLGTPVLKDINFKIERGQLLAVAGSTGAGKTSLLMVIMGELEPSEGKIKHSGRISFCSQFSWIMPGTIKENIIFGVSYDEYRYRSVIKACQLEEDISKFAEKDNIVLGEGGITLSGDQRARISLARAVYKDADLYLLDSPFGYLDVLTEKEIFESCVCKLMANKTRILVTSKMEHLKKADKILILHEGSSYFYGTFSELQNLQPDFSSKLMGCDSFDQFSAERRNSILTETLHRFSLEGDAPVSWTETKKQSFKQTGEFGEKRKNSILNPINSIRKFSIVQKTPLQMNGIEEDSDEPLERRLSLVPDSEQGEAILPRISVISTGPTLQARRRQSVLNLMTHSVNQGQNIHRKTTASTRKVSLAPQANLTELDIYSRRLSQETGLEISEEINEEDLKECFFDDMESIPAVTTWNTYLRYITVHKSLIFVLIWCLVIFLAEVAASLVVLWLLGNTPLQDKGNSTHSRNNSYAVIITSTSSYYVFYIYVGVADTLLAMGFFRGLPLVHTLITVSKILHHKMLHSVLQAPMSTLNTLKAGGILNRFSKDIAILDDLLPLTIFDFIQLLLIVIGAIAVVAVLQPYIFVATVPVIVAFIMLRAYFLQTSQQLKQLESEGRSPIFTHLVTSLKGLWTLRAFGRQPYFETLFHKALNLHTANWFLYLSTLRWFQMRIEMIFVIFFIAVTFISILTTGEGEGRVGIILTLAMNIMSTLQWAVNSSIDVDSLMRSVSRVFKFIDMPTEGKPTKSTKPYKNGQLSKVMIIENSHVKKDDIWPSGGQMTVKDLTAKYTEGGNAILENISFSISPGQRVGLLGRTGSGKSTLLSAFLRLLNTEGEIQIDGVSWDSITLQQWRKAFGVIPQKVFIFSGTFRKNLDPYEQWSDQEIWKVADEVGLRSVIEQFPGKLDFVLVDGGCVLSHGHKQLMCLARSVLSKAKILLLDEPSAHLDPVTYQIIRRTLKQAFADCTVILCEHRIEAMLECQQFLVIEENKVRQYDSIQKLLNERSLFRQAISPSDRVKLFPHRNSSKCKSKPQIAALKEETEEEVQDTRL", "test": "Patch-clamp recording of G551D-CFTR currents in excised inside-out patches of transfected CHO cells", "format": "cell-based", "from_the_text": "Patch-clamp is considered the gold standard for assessing directly ion channel function in real time. By attaching a glass microelectrode on the surface of a cell, it is possible to record the currents generated by channels proteins that are present in this tiny “patch” of cell membranes. Since millions of ions pass through a single ion channel pore per second, the resulting microscopic currents from a single channel protein molecule can be detected with modem patch-clamp amplifiers. As ion channels (a conductor in electricity term) are arranged in parallel in the cell membrane, it is also possible to assay a group of ion channels by monitoring macroscopic currents representing the sum of currents from individual channels. Microscopic recordings allow artisans to examine exquisitely the effects of compounds on the Po and kinetic parameters of CFTR channels; whereas macroscopic recordings provide an assay not only to quantify the overall effects of compounds on N×Po×i, but also monitor the stability of the CFTR currents in real time.\nChinese hamster ovary (CHO) cells were grown at 37° C. in Dulbecco's modified Eagle's medium supplemented with 10% fetal bovine serum. Cells were subcultured into 35-mm tissue culture dishes 1 day before transfection. PolyFect transfection reagent (QIAGEN) was used to cotransfect CFTR cDNA and pEGFP-C3 (Takara Bio Inc.), which encodes green fluorescence proteins, into CHO cells. After transfection, cells were incubated at 27° C. for at least 2 days before electrophysiological experiments were performed.\nGlass chips carrying the transfected cells were transferred to a chamber located on the stage of an inverted microscope (IX51; Olympus). Borosilicate capillary glasses were used to make patch pipettes using a two-stage micropipette puller (PP-81, Narishige, Japan). The pipettes were polished with a homemade microforge to a resistance of 2-4 MΩ in the bath solution. Once the seal resistance reached >40 GΩ, membrane patches were excised into an inside-out mode. Subsequently, the pipette was moved to the outlet of a three-barrel perfusion system and perfused with 25 IU PKA and 2 mM ATP until the CFTR current reached a steady state. A patch-clamp amplifier (EPC10, HEKA, Germany) was used to record electrophysiological data at room temperature. The data were filtered online at 100 Hz with an eight-pole Bessel filter (LPF-8; Warner Instruments) and digitized to a computer at a sampling rate of 500 Hz. […] Membrane potential was held at −30 or −50 mV for all recordings.\nDisease-causing mutations (G551D and delF508) were made with PCR-based site-directed mutagenesis using the Pfu Ultra II (Agilent Technologies). […] The cDNA constructs of CFTR (G551D and delF508) were co-transfected with peGFP-C3 (Takara Bio Inc.) encoding the green fluorescent protein into CHO cells using PolyFect transfection reagent (QIAGEN). The transfected cells were transferred into 35 mm tissue culture dishes containing one layer of sterilized glass chips for cells to grow on. The transfected cells were incubated at 27° C. for 2-7 days before electrophysiological experiments were performed.\nAll patch-clamp experiments were carried out in the excised inside-out configuration. Micropipettes made of borosilicate capillary glass were pulled with a two-stage vertical puller (Narishige) and then fire-polished with a homemade microforge to reach a pipet resistance of 2-4 MΩ when the pipettes were filled with a standard inside-out pipet solution that contains: 140 mM N-Methyl-D-glucamine-Cl (NMDG-Cl), 2 mM MgCl2, 5 mM CaCl2) and 10 mM HEPES, adjusted to pH 7.4 with NMDG."}
{"compound": "CC(C)(C)c1cc(C(C)(C)C)c(NC(=O)c2c[nH]c3ccccc3c2=O)cc1O", "note": "[VX-770, Ivacaftor, reference compound]", "values": [{"measurement": "fold increase of mean G551D-CFTR current", "setting": "200 nM VX-770 alone", "value": "around 10 folds"}, {"measurement": "effect on G551D-CFTR currents, compound alone", "setting": "after activation by PKA and ATP", "value": "increased the current to approximately the same level as LZH-00014"}]}
